The values that follow come from US12522594B2, “2-heteroaryl-3-oxo-2,3-dihydropyridazine-4-carboxamides for the treatment of cancer” (Deutsches Krebsforschungszentrum, priority 2017, dated 2026).

Where “and” joins values, the source holds several entries; their conditions need not be identical. Equal entries are not always repeated.

As a reminder, the IC50 is the midpoint of a concentration-inhibition curve.

Type in all cases: cell-based
For test [1], the target named is T1, AHR (Homo sapiens, UniProt P35869).
T1 sequence (P35869 11-848): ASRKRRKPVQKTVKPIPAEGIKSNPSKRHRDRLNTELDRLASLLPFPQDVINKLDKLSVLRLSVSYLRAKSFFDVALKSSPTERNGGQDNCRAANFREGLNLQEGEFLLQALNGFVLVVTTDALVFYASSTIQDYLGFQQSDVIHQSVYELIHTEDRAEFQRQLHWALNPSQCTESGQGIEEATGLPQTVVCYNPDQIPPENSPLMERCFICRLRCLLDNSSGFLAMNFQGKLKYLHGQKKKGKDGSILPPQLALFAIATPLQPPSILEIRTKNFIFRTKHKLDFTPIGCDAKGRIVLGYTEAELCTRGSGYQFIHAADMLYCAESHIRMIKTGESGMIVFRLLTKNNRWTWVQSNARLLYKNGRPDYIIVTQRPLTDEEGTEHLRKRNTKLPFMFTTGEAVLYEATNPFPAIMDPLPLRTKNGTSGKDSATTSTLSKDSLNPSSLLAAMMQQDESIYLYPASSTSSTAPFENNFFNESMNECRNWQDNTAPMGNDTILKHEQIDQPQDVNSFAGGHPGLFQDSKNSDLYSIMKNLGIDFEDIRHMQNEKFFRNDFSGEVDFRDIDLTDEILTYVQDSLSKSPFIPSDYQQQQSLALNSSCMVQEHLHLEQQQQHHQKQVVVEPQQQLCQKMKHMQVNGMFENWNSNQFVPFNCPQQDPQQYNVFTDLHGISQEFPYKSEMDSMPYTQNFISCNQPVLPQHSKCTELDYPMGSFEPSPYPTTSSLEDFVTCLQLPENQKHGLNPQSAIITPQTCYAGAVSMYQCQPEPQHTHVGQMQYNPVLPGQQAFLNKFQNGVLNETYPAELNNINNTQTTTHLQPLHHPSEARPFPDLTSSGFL
The test is described as follows: In vitro assay 3: AHR-regulated CYP1A1 expression in human cell line (U937, qPCR, KA stimulation). Conditions: U937 cells, 200 uM KA, 6 hours, CYP1A1 expression by qPCR; read-out: Assay 3: Hum CYP1A1 Antagonism IC50. Put shortly:
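U937 human monocytic cells were stimulated with 200 uM KA for 6 h, with or without compound at eight concentrations from 1 nM to 3 uM, in duplicate. CYP1A1 mRNA was quantified by Taqman qPCR as fold expression normalised to HPRT. Unstimulated cells served as negative control.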
(In qPCR the cycle at which signal appears reflects the starting amount.)

For test [2], the target named is T1, AHR. The test is described as follows: In vitro assay 1: antagonism in human cell line (transactivation assay, U87 cells prestimulated with kynurenic acid, DRE firefly luciferase reporter). Set-up: host or cells: U87 glioblastoma cells, stably transfected with DRE firefly luciferase and renilla reporter constructs. The note with it: 150 uM kynurenic acid, 20 hours, read-out: Assay 1: AHR-luc Hum Antagonism IC50. Put shortly: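 Antagonism measured after kynurenic acid prestimulation in U87 cells that express AHR endogenously and stably harbor a firefly luciferase gene under DRE control plus a constitutive renilla construct. Positive and negative controls served for normalization.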
A general note: Reporter assays use an easily measured gene product as a stand-in for the process of interest.

Test [3] has as its target T1, AHR. The test is described as follows: In vitro assay 2: agonism in human cell line (transactivation assay, U87 cells, DRE firefly luciferase reporter). Also noted: host or cells: U87 glioblastoma cells, stably transfected with DRE firefly luciferase and renilla reporter constructs. The note with it: no kynurenic acid, 20 hours, read-out: Assay 2: AHR-luc Hum Agonism IC50. Put shortly:
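Agonist readout: DRE firefly luciferase, with constitutive renilla reporter, in stably transfected U87 cells expressing AHR endogenously. Normalization used positive control (300 uM kynurenic acid) and negative control.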

Test [4] concerns human monocytes. Description: In vitro assay 4: rescue of TNFα production from human primary monocytes (LPS + KA). Conditions: one value per donor; for Individual Donors Conc of highest rescue: concentration (of 1, 0.3, 0.1 uM tested) at which highest TNFα rescue was observed; for Individual Donors % rescue TNFα normalised to ref cmpd: human monocytes, 10 ng/mL LPS + 200 uM KA, 18 hours, highest percent rescue relative to highest rescue with GNF-351. Here is the method: In Vitro Assay 4: Rescue of TNFα Production from Human Primary Monocytes
The ability of the substances to enhance immune cell activity was determined. The substances were tested for their capacity to reverse KA-induced inhibition of TNFα production by LPS-stimulated human monocytes. Human monocytes were purified by negative selection from donor PBMCs using Miltenyi beads and seeded at 2×10^5 cells/well in complete growth medium (RPMI 1640, 10% FCS). Monocytes were incubated with 10 ng/mL LPS (O127:B8, #L4516, Sigma) and 200 uM KA (#3375, Sigma) and substances were added at concentrations of 1 uM, 0.3 uM and 0.1 uM and cultured for 18 hours. LPS alone served as the positive control. TNFα production in the supernatant was measured by Meso Scale Discovery immunoassay and the ability of the substances to rescue TNFα production was calculated as a percentage of LPS stimulation and KA-induced inhibition and normalized to the donor-specific response with the reference AHR antagonist compound GNF-351 (Smith et al., J Pharmacol Exp Ther, 2011, 338(1):318-27).

Turning to `COCC(O)CNC(=O)c1cc(-c2ccc(Cl)cc2)nn(-c2cnn(C)c2)c1=O` (single isomer, unassigned; (-)) [Example 25, (−)-6-(4-Chlorophenyl)-11-(2-hydroxy-3-methoxypropyl)-2-(1-methyl-1H-pyrazol-4-yl)-3-oxo-2,3-dihydropyridazine-4-carboxamide], the IC50 in test [1] was 91.1 nM; in test [2], 68.2 nM; in test [3], over 20000 nM. For the same compound, the “Individual Donors Conc of highest rescue” value in test [4] was determined as 1 µM. The “Individual Donors % rescue TNFα normalised to ref cmpd” value in test [4] was 46% and 53%.

As to `O=C(NC(CO)C(F)(F)F)c1cc(-c2ccc(C(F)(F)F)cc2)nn(-c2cccnc2)c1=O` (racemic) [Example 110, 3-Oxo-2-(pyridin-3-yl)-N-[(2RS)-1,1,1-trifluoro-3-hydroxypropan-2-yl]-6-[4-(trifluoromethyl)phenyl]-2,3-dihydropyridazine-4-carboxamide], the IC50 in test [2] is 3.31 nM; in test [3] it was over 20000 nM. Besides, the “Individual Donors Conc of highest rescue” value in test [4] is 0.1 µM and 0.3 µM. Further, the “Individual Donors % rescue TNFα normalised to ref cmpd” value in test [4] is 85% and 42%.

For the compound `O=C(NC[C@@H](O)CO)c1cc(-c2ccc(C(F)(F)F)cc2)nn(-c2cccnc2)c1=O` [Example 113, N-[(2R)-2,3-Dihydroxypropyl]-3-oxo-2-(pyridin-3-yl)-6-[4-(trifluoromethyl)phenyl]-2,3-dihydropyridazine-4-carboxamide], the IC50 is 105 nM in test [1], 48.3 nM in test [2] and over 20000 nM in test [3]. In test [4], the “Individual Donors Conc of highest rescue” value amounted to 1 µM. Besides, the “Individual Donors % rescue TNFα normalised to ref cmpd” value in test [4] was 91% and 51%.

For `CC(C)(O)C(NC(=O)c1cc(-c2ccc(Cl)cc2)nn(-c2cncnc2)c1=O)C(F)(F)F` (single isomer, unassigned) [Example 186, 6-(4-Chlorophenyl)-3-oxo-2-(pyrimidin-5-yl)-N-(1,1,1-trifluoro-3-hydroxy-3-methylbutan-2-yl)-2,3-dihydropyridazine-4-carboxamide], the 50% inhibitory concentration (IC50) in test [2] was 131 nM. Further, the IC50 in test [3] was over 20000 nM. Further, in test [4], the “Individual Donors Conc of highest rescue” value is 0.1 µM and 0.3 µM; the “Individual Donors % rescue TNFα normalised to ref cmpd” value was 65% and 108%.

Take `Cc1ccc(-c2cc(C(=O)NC(C)CO)c(=O)n(-c3cnn(C)c3)n2)cc1` (centres unmarked) [Example 7, N-(1-Hydroxypropan-2-yl)-6-(4-methylphenyl)-2-(1-methyl-1H-pyrazol-4-yl)-3-oxo-2,3-dihydropyridazine-4-carboxamide]: in test [2], the IC50 amounted to 20.5 nM. Further, the IC50 in test [3] is over 20000 nM. Besides, in test [4], the “Individual Donors Conc of highest rescue” value is 0.1 μM and 1 μM (2×); the “Individual Donors % rescue TNFα normalised to ref cmpd” value was 126% and 63% and 49%.

For the compound `O=C(N[C@H]1COC[C@H]1O)c1cc(-c2ccc(C(F)F)nc2)nn(-c2cccnc2)c1=O` (single isomer, unassigned) [Example 184, 6-[6-(Difluoromethyl)pyridin-3-yl]-N-[(cis)-4-hydroxytetrahydrofuran-3-yl]-3-oxo-2-(pyridin-3-yl)-2,3-dihydropyridazine-4-carboxamide], the IC50 in test [2] was 3810 nM; in test [3] it was over 20000 nM. The “Individual Donors Conc of highest rescue” value in test [4] was 0.1 µM and 1 µM. Besides, the “Individual Donors % rescue TNFα normalised to ref cmpd” value in test [4] was 63% and 62%.

As for `COC[C@H](CO)NC(=O)c1cc(-c2ccc(Cl)cc2)nn(-c2cnn(C)c2)c1=O` [Example 29, 6-(4-Chlorophenyl)-N-[(2S)-1-hydroxy-3-methoxypropan-2-yl]-2-(1-methyl-1H-pyrazol-4-yl)-3-oxo-2,3-dihydropyridazine-4-carboxamide], the IC50 in test [2] was 76.1 nM; in test [3], over 20000 nM. In test [4], the “Individual Donors Conc of highest rescue” value turned out to be 1 µM. For the same compound, the “Individual Donors % rescue TNFα normalised to ref cmpd” value in test [4] was 66% and 88%.

Consider `O=C(NCC(O)C(F)F)c1cc(-c2ccc(Cl)cc2)nn(-c2cccnc2)c1=O` (single isomer, unassigned; (+)) [Example 88, (+)-6-(4-Chlorophenyl)-N-(3,3-difluoro-2-hydroxypropyl)-3-oxo-2-(pyridin-3-yl)-2,3-dihydropyridazine-4-carboxamide], for which the IC50 in test [2] was 78 nM. In addition, the IC50 in test [3] was over 20000 nM. Also, in test [4], the “Individual Donors Conc of highest rescue” value was 1 µM; the “Individual Donors % rescue TNFα normalised to ref cmpd” value was 69% and 35%.

As to `C[C@H](CO)NC(=O)c1cc(-c2ccc(Cl)cc2)nn(-c2cccnc2)c1=O` [Example 69, 6-(4-Chlorophenyl)-N-[(2R)-1-hydroxypropan-2-yl]-3-oxo-2-(pyridin-3-yl)-2,3-dihydropyridazine-4-carboxamide], the IC50 in test [2] turned out to be 214 nM. In addition, the IC50 in test [3] was over 20000 nM. In test [4], the “Individual Donors Conc of highest rescue” value was determined as 0.1 µM; the “Individual Donors % rescue TNFα normalised to ref cmpd” value is 88% and 97%.

As for `Cn1cc(-n2nc(-c3ccc(Cl)cc3)cc(C(=O)NC[C@H](O)CO)c2=O)cn1` [Example 27, 6-(4-Chlorophenyl)-N-[(2S)-2,3-dihydroxypropyl]-2-(1-methyl-1H-pyrazol-4-yl)-3-oxo-2,3-dihydropyridazine-4-carboxamide], the IC50 in test [2] is 177 nM. In addition, the IC50 in test [3] is over 20000 nM. Moreover, in test [4], the “Individual Donors Conc of highest rescue” value was 1 µM and 0.3 µM; the “Individual Donors % rescue TNFα normalised to ref cmpd” value was 87% and 105%.

Consider `Cn1cc(-n2nc(-c3ccc(Cl)cc3)cc(C(=O)NCC(O)C(F)F)c2=O)cn1` (single isomer, unassigned; (+)) [Example 23, (+)-6-(4-Chlorophenyl)-N-(3,3-difluoro-2-hydroxypropyl)-2-(1-methyl-1H-pyrazol-4-yl)-3-oxo-2,3-dihydropyridazine-4-carboxamide], for which, in test [2], the IC50 was 45.7 nM. The IC50 in test [3] was over 20000 nM. In test [4], the “Individual Donors Conc of highest rescue” value was found to be 1 µM; the “Individual Donors % rescue TNFα normalised to ref cmpd” value is 274% and 81%.

Regarding `Cn1cc(-n2nc(-c3ccc(C(F)(F)F)cc3)cc(C(=O)N[C@H](CO)C(F)(F)F)c2=O)cn1` [Example 36, 2-(1-Methyl-1H-pyrazol-4-yl)-3-oxo-N-[(2R)-1,1,1-trifluoro-3-hydroxypropan-2-yl]-6-[4-(trifluoromethyl)phenyl]-2,3-dihydropyridazine-4-carboxamide], the IC50 in test [3] was over 20000 nM. Besides, in test [4], the “Individual Donors Conc of highest rescue” value amounted to 1 µM; the “Individual Donors % rescue TNFα normalised to ref cmpd” value is 74% and 65%.

For `COCC(O)CNC(=O)c1cc(-c2ccc(Cl)cc2)nn(-c2cnn(C)c2)c1=O` (centres unmarked) [Example 24, 6-(4-Chlorophenyl)-N-(2-hydroxy-3-methoxypropyl)-2-(1-methyl-1H-pyrazol-4-yl)-3-oxo-2,3-dihydropyridazine-4-carboxamide], the IC50 in test [2] was found to be 87.5 nM. Besides, the IC50 in test [3] is over 20000 nM. For the same compound, in test [4], the “Individual Donors Conc of highest rescue” value is 0.3 µM and 1 µM; the “Individual Donors % rescue TNFα normalised to ref cmpd” value is 84% and 59%.
